From patent US9321790B2, “Pyrimidinone derivatives as antimalarial agents” (SANOFI, priority 2012, dated 2016)

How the values were obtained:
[1] = molecular target: human PI3Kα (Homo sapiens (Human), UniProt P42336); assay: Human PI3Kα activity test (luciferin/luciferase ATP consumption, KinaseGlo); format: biochemical; settings: PI3Kα (p110α/p85α), 50 μM PIP2, 2 μM ATP, 90 minutes; read-out: IC50 Human PI3Kα
Protocol: The test uses a luciferin/luciferase system to measure the concentration of ATP and its consumption during the enzymatic reaction.
After 90 minutes, the reaction is quenched by adding 20 μl/well of KinaseGlo reagent (Promega V6713). After 10 minutes in the dark, the luminescence is read using a PHERAStar microplate reader (reading at 0.8 sec/well).

[2] = tested on: Plasmodium falciparum (strain NF54); assay: Antimalarial activity test: growth of Plasmodium falciparum in infected human erythrocytes, 3H-hypoxanthine incorporation; format: cell-based; settings: strain NF54 sensitive to chloroquine, 72 h total incubation
Procedure, shortened: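 Chloroquine-sensitive NF54 parasites in human erythrocytes (1.25% hematocrit, 0.15% parasitemia) were grown in hypoxanthine-free RPMI 1640 with HEPES and Albumax II, with compound in twofold serial dilution, at 37 °C under 93% N2/4% CO2/3% O2. After 48 h, 3H-hypoxanthine (0.5 μCi) was added for 24 h. Scintillation counts versus drug-free control gave IC50.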

[3] = Plasmodium falciparum, Erythrocyte

Sequence of human PI3Kα (P42336 whole entry): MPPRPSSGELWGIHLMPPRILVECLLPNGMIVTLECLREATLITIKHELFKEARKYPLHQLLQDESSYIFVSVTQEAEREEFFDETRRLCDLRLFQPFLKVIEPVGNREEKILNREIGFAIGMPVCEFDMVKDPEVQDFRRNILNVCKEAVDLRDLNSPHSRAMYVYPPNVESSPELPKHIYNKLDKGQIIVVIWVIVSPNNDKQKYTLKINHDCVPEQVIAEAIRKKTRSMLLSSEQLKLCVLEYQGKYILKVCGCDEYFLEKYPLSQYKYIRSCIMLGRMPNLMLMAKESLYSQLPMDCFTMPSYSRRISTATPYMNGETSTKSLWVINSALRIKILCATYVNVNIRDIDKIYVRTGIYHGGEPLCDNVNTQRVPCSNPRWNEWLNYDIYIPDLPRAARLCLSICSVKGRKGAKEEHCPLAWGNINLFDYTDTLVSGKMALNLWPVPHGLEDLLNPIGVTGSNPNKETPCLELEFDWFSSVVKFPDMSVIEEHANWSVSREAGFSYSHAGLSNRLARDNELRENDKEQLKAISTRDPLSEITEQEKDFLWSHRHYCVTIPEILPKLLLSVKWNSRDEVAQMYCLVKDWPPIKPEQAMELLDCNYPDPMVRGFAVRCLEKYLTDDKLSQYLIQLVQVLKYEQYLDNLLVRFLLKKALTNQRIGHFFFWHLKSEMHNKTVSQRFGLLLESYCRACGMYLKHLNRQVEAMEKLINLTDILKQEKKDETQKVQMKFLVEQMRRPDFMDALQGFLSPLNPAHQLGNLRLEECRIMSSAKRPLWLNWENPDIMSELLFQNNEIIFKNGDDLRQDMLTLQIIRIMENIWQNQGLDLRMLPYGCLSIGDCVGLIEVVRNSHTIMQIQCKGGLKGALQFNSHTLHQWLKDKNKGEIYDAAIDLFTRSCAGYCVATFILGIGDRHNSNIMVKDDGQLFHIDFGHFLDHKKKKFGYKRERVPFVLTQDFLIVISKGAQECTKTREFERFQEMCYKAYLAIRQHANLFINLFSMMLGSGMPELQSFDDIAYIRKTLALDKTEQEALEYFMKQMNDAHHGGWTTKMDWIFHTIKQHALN
Sequence of human PI3Kα (P27986 whole entry partner): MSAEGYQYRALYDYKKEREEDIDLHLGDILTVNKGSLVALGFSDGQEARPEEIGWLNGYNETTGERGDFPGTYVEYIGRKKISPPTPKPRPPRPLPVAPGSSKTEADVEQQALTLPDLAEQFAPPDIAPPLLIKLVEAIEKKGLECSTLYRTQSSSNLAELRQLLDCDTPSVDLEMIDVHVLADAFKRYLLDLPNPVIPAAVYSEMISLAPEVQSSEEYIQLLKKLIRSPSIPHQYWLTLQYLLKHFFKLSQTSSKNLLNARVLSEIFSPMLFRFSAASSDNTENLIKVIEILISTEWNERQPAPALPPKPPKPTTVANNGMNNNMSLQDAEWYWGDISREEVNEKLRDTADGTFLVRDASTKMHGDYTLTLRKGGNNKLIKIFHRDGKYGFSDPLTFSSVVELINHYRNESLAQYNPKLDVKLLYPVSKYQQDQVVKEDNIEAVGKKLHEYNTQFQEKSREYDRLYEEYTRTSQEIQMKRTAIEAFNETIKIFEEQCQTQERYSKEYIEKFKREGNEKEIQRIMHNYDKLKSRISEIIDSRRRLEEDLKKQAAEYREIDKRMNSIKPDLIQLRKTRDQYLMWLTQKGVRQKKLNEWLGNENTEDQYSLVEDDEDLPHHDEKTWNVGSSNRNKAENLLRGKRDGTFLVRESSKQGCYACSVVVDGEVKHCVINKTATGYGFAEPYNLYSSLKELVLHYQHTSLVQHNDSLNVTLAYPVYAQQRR

CC(C)C(=O)CN1c2nc(N3C[C@@H]4C[C@H]3CO4)cc(=O)n2CC[C@H]1C(F)(F)F [Compound 56, (8S)-9-(3-methyl-2-oxobutyl)-2-(1S,4S)-2-oxa-5-azabicyclo[2.2.1]hept-5-yl-8-trifluoromethyl-6,7,8,9-tetrahydropyrimido[1,2-a]pyrimidin-4-one]
IC50 [1]: > 10000 nM
IC50 [2, 3]: 45 nM

CCOc1ccc(C(=O)CN2c3nc(N4C[C@@H]5C[C@H]4CO5)cc(=O)n3CC[C@H]2C(F)(F)F)cn1 [Compound 35, (8S)-9-[2-(6-Ethoxypyrid-3-yl)-2-oxoethyl]-2-(1S,4S)-2-oxa-5-azabicyclo[2.2.1]hept-5-yl-8-trifluoromethyl-6,7,8,9-tetrahydropyrimido[1,2-a]pyrimidin-4-one]
IC50 [1]: > 10000 nM
IC50 [2, 3]: > 210 nM

COc1ccc(CCN2c3nc(N4CC5CCC(C4)O5)cc(=O)n3C[C@@]2(C)C(F)(F)F)cc1 [Compound 76, (S)-1-[2-(4-Methoxyphenyl)ethyl]-2-methyl-7-(8-oxa-3-azabicyclo[3.2.1]oct-3-yl)-2-trifluoromethyl-2,3-dihydro-1H-imidazo[1,2-a]pyrimidin-5-one]
IC50 [1]: 950 nM
IC50 [2, 3]: 93 nM

Cn1cc(CN2c3nc(N4C[C@@H]5C[C@H]4CO5)cc(=O)n3CC[C@H]2C(F)(F)F)c(C(F)(F)F)n1 [Compound 116, (8S)-9-(1-Methyl-3-trifluoromethyl-1H-pyrazol-4-ylmethyl)-2-(1S,4S)-2-oxa-5-azabicyclo[2.2.1]hept-5-yl-8-trifluoromethyl-6,7,8,9-tetrahydropyrimido[1,2-a]pyrimidin-4-one]
IC50 [1]: > 10000 nM
IC50 [2, 3]: 117 nM

O=C(COc1ccc(CCN2c3nc(N4C[C@@H]5C[C@H]4CO5)cc(=O)n3CC[C@H]2C(F)(F)F)cc1)N1CCOCC1 [Compound 115, (S)-9-{2-[4-(2-Morpholin-4-yl-2-oxoethoxy)phenyl]ethyl}-2-(1S,4S)-2-oxa-5-azabicyclo[2.2.1]hept-5-yl-8-trifluoromethyl-6,7,8,9-tetrahydropyrimido[1,2-a]pyrimidin-4-one]
IC50 [1]: 590 nM
IC50 [2, 3]: 3 nM

O=c1cc(N2CC3CCC(C2)O3)nc2n1CC[C@@H](C(F)(F)F)N2C[C@@H](O)c1cc2ccccc2s1 [Compound 82, (8S)-9-((R)-2-Benzo[b]thiophen-2-yl-2-hydroxyethyl)-2-(8-oxa-3-azabicyclo[3.2.1]oct-3-yl)-8-trifluoromethyl-6,7,8,9-tetrahydropyrimido[1,2-a]pyrimidin-4-one]
IC50 [1]: 340 nM
IC50 [2, 3]: 9 nM

Cn1nc(CN2c3nc(N4C[C@@H]5C[C@H]4CO5)cc(=O)n3CC[C@H]2C(F)(F)F)c2ccccc21 [Compound 51, (8S)-9-(1-methyl-1H-indazol-3-ylmethyl)-2-(1S,4S)-2-oxa-5-azabicyclo[2.2.1]hept-5-yl-8-trifluoromethyl-6,7,8,9-tetrahydropyrimido[1,2-a]pyrimidin-4-one]
IC50 [1]: > 10000 nM
IC50 [2, 3]: 65 nM

CCNC(=O)Nc1ccc(CCN2c3nc(N4C[C@@H]5C[C@H]4CO5)cc(=O)n3C[C@@]2(C)C(F)(F)F)cc1 [Compound 24, 1-ethyl-3-(4-{2-[(1S,4S)-2-methyl-7-2-oxa-5-azabicyclo[2.2.1]hept-5-yl-5-oxo-2-((S)-trifluoromethyl)-2,3-dihydro-5H-imidazo[1,2-a]pyrimidin-1-yl]ethyl}phenyl)urea]
IC50 [1]: 2440 nM
IC50 [2, 3]: 8 nM

O=CN1CCC(C(=O)CN2c3nc(N4C[C@@H]5C[C@H]4CO5)cc(=O)n3CC[C@H]2C(F)(F)F)CC1 [Compound 118, 4-[2-((S)-8-(1S,4S)-2-Oxa-5-azabicyclo[2.2.1]hept-5-yl-6-oxo-2-trifluoromethyl-3,4-dihydro-2H,6H-pyrimido[1,2-a]pyrimidin-1-yl)acetyl]piperidine-1-carbaldehyde]
IC50 [1]: > 10000 nM
IC50 [2]: 15 nM

O=C(CN1c2nc(N3C[C@@H]4C[C@H]3CO4)cc(=O)n2CC[C@H]1C(F)(F)F)c1ccc(OC(F)F)cc1 [Compound 37, (S)-9-[2-(4-Difluoromethoxyphenyl)-2-oxoethyl]-2-(1S,4S)-2-oxa-5-azabicyclo[2.2.1]hept-5-yl-8-trifluoromethyl-6,7,8,9-tetrahydropyrimido[1,2-a]pyrimidin-4-one]
IC50 [1]: > 10000 nM
IC50 [2, 3]: 230 nM

Nc1ccc(C(=O)CN2c3nc(N4CC5CC4CO5)cc(=O)n3CC[C@H]2C(F)(F)F)cn1 (stereo partly drawn) [Compound 3, (8S)-9-[2-(6-Aminopyrid-3-yl)-2-oxoethyl]-2-oxa-5-azabicyclo[2.2.1]hept-5-yl-8-trifluoromethyl-6,7,8,9-tetrahydropyrimido[1,2-a]pyrimidin-4-one]
IC50 [1]: 7200 nM
IC50 [2]: 13 nM

O=C(CN1c2nc(N3C[C@@H]4C[C@H]3CO4)cc(=O)n2CC[C@H]1C(F)(F)F)c1ccc(C(F)(F)F)nc1 [Compound 33, (8S)-2-(1S,4S)-2-Oxa-5-azabicyclo[2.2.1]hept-5-yl-9-[2-oxo-2-(6-trifluoromethylpyrid-3-yl)ethyl]-8-trifluoromethyl-6,7,8,9-tetrahydropyrimido[1,2-a]pyrimidin-4-one]
IC50 [1]: > 10000 nM
IC50 [2]: 4000 nM

O=c1cc(N2C[C@@H]3C[C@H]2CO3)nc2n1CC[C@@H](C(F)(F)F)N2Cc1cccc2cnccc12 [Compound 109, (8S)-9-Isoquinolin-5-ylmethyl-2-(1S,4S)-2-oxa-5-azabicyclo[2.2.1]hept-5-yl-8-trifluoromethyl-6,7,8,9-tetrahydropyrimido[1,2-a]pyrimidin-4-one]
IC50 [1]: 7800 nM
IC50 [2, 3]: 79 nM

O=c1cc(N2C[C@@H]3C[C@H]2CO3)nc2n1CC[C@@H](C(F)(F)F)N2CCc1cccnc1 [Compound 12, (8S)-2-(1S,4S)-2-oxa-5-azabicyclo[2.2.1]hept-5-yl-9-(2-pyrid-3-ylethyl)-8-trifluoromethyl-6,7,8,9-tetrahydropyrimido[1,2-a]pyrimidin-4-one]
IC50 [1]: 2900 nM
IC50 [2, 3]: 9 nM

CC(C)(O)CCN1c2nc(N3C[C@@H]4C[C@H]3CO4)cc(=O)n2CC[C@H]1C(F)(F)F [Compound 50, (8S)-9-(3-hydroxy-3-methylbutyl)-2-(1S,4S)-2-oxa-5-azabicyclo[2.2.1]hept-5-yl-8-trifluoromethyl-6,7,8,9-tetrahydropyrimido[1,2-a]pyrimidin-4-one]
IC50 [1]: 4300 nM
IC50 [2, 3]: 8 nM

CN(C)C(=O)COc1ccc(CCN2c3nc(N4CC5CCC(C4)O5)cc(=O)n3C[C@@]2(C)C(F)(F)F)cc1 [Compound 70, N, N-dimethyl-2-(4-{2-[(S)-2-methyl-7-(8-oxa-3-azabicyclo[3.2.1]oct-3-yl)-5-oxo-2-trifluoromethyl-2,3-dihydro-5H-imidazo[1,2-a]pyrimidin-1-yl]ethyl}phenoxy)acetamide]
IC50 [1]: 1000 nM
IC50 [2, 3]: 12 nM

O=C(CN1c2nc(N3CC4CCC(C3)O4)cc(=O)n2CC[C@H]1C(F)(F)F)c1ccccc1 [Compound 73, (8S)-2-(8-Oxa-3-azabicyclo[3.2.1]oct-3-yl)-9-(2-oxo-2-phenylethyl)-8-trifluoromethyl-6,7,8,9-tetrahydropyrimido[1,2-a]pyrimidin-4-one]
IC50 [1]: 2500 nM
IC50 [2, 3]: 44 nM

O=C(CN1c2nc(N3C[C@@H]4C[C@H]3CO4)cc(=O)n2CC[C@H]1C(F)(F)F)C1CC1 [Compound 67, (8S)-9-(2-Cyclopropyl-2-oxoethyl)-2-(1S,4S)-2-oxa-5-azabicyclo[2.2.1]hept-5-yl-8-trifluoromethyl-6,7,8,9-tetrahydropyrimido[1,2-a]pyrimidin-4-one]
IC50 [1]: 4000 nM
IC50 [2, 3]: 43 nM
